Experimental data published in ChEMBL document CHEMBL3826966, “A chromatography-free isolation of rohitukine from leaves of Dysoxylum binectariferum: Evaluation for in vitro cytotoxicity, Cdk inhibition and physicochemical properties” (Bioorg Med Chem Lett, 2016).
In brackets after ≈: the same amount, converted by molar mass.

Assays:
ASPC1 = experiment: Cytotoxicity against human AsPC1 cells assessed as cell growth inhibition after 48 hrs by MTT assay; format: functional; conditions: ASPC1, 48 h
[1] = Cytotoxicity against human DU145 cells assessed as cell growth inhibition after 48 hrs by MTT assay; format: functional; conditions: DU-145, 48 h
[2] = Cell cycle arrest in human HL60 cells assessed as accumulation at G2 phase at 10 uM (reference value: 5 %); format: functional, cell-based; conditions: HL-60
[3] = Thermodynamic equilibrium solubility in stimulated intestinal fluid at 120 ug/ml at pH 6.8 by HPLC analysis; format: ADME; conditions: simulated intestinal fluid, read-out: Therm_solubility
[4] = target: Ephrin type-B receptor 4 (Homo sapiens) (UniProt P54760); experiment: Inhibition of human EPHB4 (561 to 997 residues) assessed as remaining enzyme activity at 50 uM after 30 mins by 33P-ATP filter-binding assay
[5] = target: Dual specificity tyrosine-phosphorylation-regulated kinase 3 (Homo sapiens) (UniProt O43781); experiment: Inhibition of human DYRK3 (1 to 588 residues) assessed as remaining enzyme activity at 50 uM after 30 mins by 33P-ATP filter-binding assay
HL-60 = experiment: Induction of apoptosis in human HL60 cells assessed as apoptotic cells at 10 uM (reference value: 1 %); format: functional
[6] = target: SRSF protein kinase 1 (Homo sapiens) (UniProt Q96SB4); experiment: Inhibition of human SRPK1 (2 to 654 residues) assessed as remaining enzyme activity at 50 uM after 30 mins by 33P-ATP filter-binding assay
K562 = experiment: Cytotoxicity against human K562 cells assessed as cell growth inhibition after 48 hrs by MTT assay; format: functional; conditions: K562, 48 h
MAP4K2 = experiment: Inhibition of human GCK (2 to 812 residues) assessed as remaining enzyme activity at 50 uM after 30 mins by 33P-ATP filter-binding assay
[7] = target: Serine/threonine-protein kinase BRSK1 (Homo sapiens) (UniProt Q8TDC3); experiment: Inhibition of human BRSK1 (2 to 778 residues) assessed as remaining enzyme activity at 50 uM after 30 mins by 33P-ATP filter-binding assay
[8] = target: Homeodomain-interacting protein kinase 3 (Homo sapiens) (UniProt Q9H422); experiment: Inhibition of human HIPK3 (161 to 562 residues) assessed as remaining enzyme activity at 50 uM after 30 mins by 33P-ATP filter-binding assay
[9] = target: Serine/threonine-protein kinase 16 (Homo sapiens) (UniProt O75716); experiment: Inhibition of human MPSK1 (1 to 305 residues) assessed as remaining enzyme activity at 50 uM after 30 mins by 33P-ATP filter-binding assay
[10] = Cell cycle arrest in human HL60 cells assessed as accumulation at S phase at 5 uM (reference value: 36 %); format: functional, cell-based; conditions: HL-60
[11] = target: Myosin light chain kinase, smooth muscle (Homo sapiens) (UniProt Q15746); experiment: Inhibition of human SmMLCK (475 to 838 residues) assessed as remaining enzyme activity at 50 uM after 30 mins by 33P-ATP filter-binding assay
[12] = target: Mitogen-activated protein kinase 13 (Homo sapiens) (UniProt O15264); experiment: Inhibition of human p38delta MAPK (1 to 365 residues) assessed as remaining enzyme activity at 50 uM after 30 mins by 33P-ATP filter-binding assay
[13] = Cell cycle arrest in human HL60 cells assessed as accumulation at G1 phase at 10 uM (reference value: 59 %); format: functional, cell-based; conditions: HL-60
[14] = target: Insulin receptor (Homo sapiens) (UniProt P06213); experiment: Inhibition of human IR (1001 to 1382 residues) assessed as remaining enzyme activity at 50 uM after 30 mins by 33P-ATP filter-binding assay
T47D = experiment: Cytotoxicity against human T47D cells assessed as cell growth inhibition after 48 hrs by MTT assay; format: functional
Homo sapiens = organism: Homo sapiens; experiment: Inhibition of human PKA assessed as remaining enzyme activity at 50 uM after 30 mins by 33P-ATP filter-binding assay
[15] = target: Mitogen-activated protein kinase kinase kinase 11 (Homo sapiens) (UniProt Q16584); experiment: Inhibition of human MLK3 (96 to 386 residues) assessed as remaining enzyme activity at 50 uM after 30 mins by 33P-ATP filter-binding assay
[16] = target: Receptor tyrosine-protein kinase erbB-4 (Homo sapiens) (UniProt Q15303); experiment: Inhibition of human HER4 (706 to 991 residues) assessed as remaining enzyme activity at 50 uM after 30 mins by 33P-ATP filter-binding assay
[17] = target: Phosphorylase kinase (Homo sapiens) (UniProt P15735+P46020+P46019+Q93100+Q16816); experiment: Inhibition of human PHK assessed as remaining enzyme activity at 50 uM after 30 mins by 33P-ATP filter-binding assay; format: protein-complex assay
[18] = target: Protein kinase C gamma type (Homo sapiens) (UniProt P05129); experiment: Inhibition of human PKCgamma (1 to 697 residues) assessed as remaining enzyme activity at 50 uM after 30 mins by 33P-ATP filter-binding assay
[19] = target: Serine/threonine-protein kinase pim-1 (Homo sapiens) (UniProt P11309); experiment: Inhibition of human PIM1 (2 to 313 residues) assessed as remaining enzyme activity at 50 uM after 30 mins by 33P-ATP filter-binding assay
[20] = target: Homeodomain-interacting protein kinase 2 (Homo sapiens) (UniProt Q9H2X6); experiment: Inhibition of human HIPK2 (165 to 564 residues) assessed as remaining enzyme activity at 50 uM after 30 mins by 33P-ATP filter-binding assay
[21] = target: NUAK family SNF1-like kinase 1 (Homo sapiens) (UniProt O60285); experiment: Inhibition of human NUAK1 (2 to 660 residues) assessed as remaining enzyme activity at 50 uM after 30 mins by 33P-ATP filter-binding assay
[22] = target: Serine/threonine-protein kinase MARK2 (Homo sapiens) (UniProt Q7KZI7); experiment: Inhibition of human MARK2 (2 to 691 residues) assessed as remaining enzyme activity at 50 uM after 30 mins by 33P-ATP filter-binding assay
[23] = target: MAP kinase-interacting serine/threonine-protein kinase 2 (Homo sapiens) (UniProt Q9HBH9); experiment: Inhibition of human MNK2 assessed as remaining enzyme activity at 50 uM after 30 mins by 33P-ATP filter-binding assay
[24] = Cytotoxicity against human FR2 cells assessed as cell growth inhibition after 48 hrs by MTT assay; format: cell-based
[25] = target: MAP kinase-activated protein kinase 5 (Homo sapiens) (UniProt Q8IW41); experiment: Inhibition of human PRAK (1 to 471 residues) assessed as remaining enzyme activity at 50 uM after 30 mins by 33P-ATP filter-binding assay
[26] = target: Mitogen-activated protein kinase 3 (Homo sapiens) (UniProt P27361); experiment: Inhibition of human ERK1 (1 to 379) assessed as remaining enzyme activity at 50 uM after 30 mins by 33P-ATP filter-binding assay
[27] = Cell cycle arrest in human HL60 cells assessed as accumulation at G1 phase at 1 uM (reference value: 59 %); format: functional, cell-based; conditions: HL-60

Question: For `Cc1cc(=O)c2c(O)cc(O)c([C@H]3CCN(C)C[C@H]3O)c2o1` [ROHITUKINE], which GI50 (ASPC1) is on record?
Answer: 21 µM

Question: And the GI50 [1]?
Answer: 26 µM

Question: And the Activity [2]?
Answer: 4%

Question: What about the solubility thermodynamic [3] of the same molecule?
Answer: 18.9 mg/mL (≈ 61.9 mM)

Question: And the Activity [4]?
Answer: 84%

Question: What about the Activity [5] of the same molecule?
Answer: 77%

Question: What about the Activity (HL-60) of the same molecule?
Answer: 10%

Question: And the Activity [6]?
Answer: 40%

Question: What about the GI50 (K562) of the same molecule?
Answer: 24 µM

Question: What about the Activity (MAP4K2) of the same molecule?
Answer: 17%

Question: What about the Activity [7] of the same molecule?
Answer: 36%

Question: And the Activity [8]?
Answer: 100%

Question: And the Activity [9]?
Answer: 87%

Question: And the Activity [10]?
Answer: 43%

Question: And the Activity [11]?
Answer: 78%

Question: What about the Activity [12] of the same molecule?
Answer: 16%

Question: And the Activity [13]?
Answer: 48%

Question: And the Activity [14]?
Answer: 91%

Question: And the GI50 (T47D)?
Answer: 24 µM

Question: And the Activity (Homo sapiens)?
Answer: 88%

Question: What about the Activity [15] of the same molecule?
Answer: 58%

Question: And the Activity [16]?
Answer: 79%

Question: And the Activity [17]?
Answer: 23%

Question: And the Activity [18]?
Answer: 89%

Question: And the Activity [19]?
Answer: 27%

Question: And the Activity [20]?
Answer: 76%

Question: What about the Activity [21] of the same molecule?
Answer: 52%

Question: What about the Activity [22] of the same molecule?
Answer: 69%

Question: And the Activity [23]?
Answer: 49%

Question: And the GI50 at 48 h [24]?
Answer: > 50 µM

Question: What about the Activity [25] of the same molecule?
Answer: 72%

Question: What about the Activity [26] of the same molecule?
Answer: 86%

Question: What about the Activity [27] of the same molecule?
Answer: 34%
